The source made the active and inactive calls. No cut-off for these calls is given here.
Legend:
[1] = test system: N2a; experiment: Neuroprotective activity against OGD/R induced cell injury in mouse N2a cells assessed as decrease in apoptotic ratio at 10 uM incubated for 24 hrs; format: functional; set-up: scale not given: the % may be the effect or the level left
[2] = test system: N2a; experiment: Neuroprotective activity against OGD/R induced cell injury in mouse N2a cells assessed as cell viability at 10 uM preincubated under hypoxic condition for 2 hrs and measured after 24 hrs (reference value: 28.66 to 30.22 %); format: functional; details: time 26 hrs, read-out: Activity
[3] = test system: Mus musculus; experiment: Neuroprotective activity against tMCAO-reperfusion induced brain injury in SPF C57 mouse model assessed as reduction in infarct volume at 10 mg/kg, iv measured after 24 hrs; format: functional; set-up: scale not given: the % may be the effect or the level left
[4] = AUC(0 to infinity) in Sprague-Dawley rat at 10 mg/kg, po measured upto 8 hrs by LC-MS/MS analysis; format: ADME, organism-based; details: in vivo
[5] = AUC(0 to t) in Sprague-Dawley rat at 10 mg/kg, po measured upto 8 hrs by LC-MS/MS analysis; format: ADME, organism-based; details: in vivo
[6] = Tmax in Sprague-Dawley rat at 10 mg/kg, po measured upto 8 hrs by LC-MS/MS analysis; format: ADME, organism-based; details: in vivo
[7] = Cmax in Sprague-Dawley rat at 10 mg/kg, po measured upto 8 hrs by LC-MS/MS analysis; format: ADME, organism-based; details: in vivo
[8] = Half-life in Sprague-Dawley rat at 10 mg/kg, po measured upto 8 hrs by LC-MS/MS analysis; format: ADME, organism-based; details: in vivo
[9] = AUC(0 to t) in ICR mouse at 1 mg/kg, iv measured upto 8 hrs by LC-MS/MS analysis; format: ADME, organism-based; details: in vivo
[10] = Metabolic stability in monkey liver microsomes assessed as half life at 50 uM preincubated with NADPH for 5 mins followed by compound addition and measured upto 60 mins by LC-MS/MS analysis; format: ADME, Macaca mulatta, Microsome; details: rhesus monkey
[11] = Metabolic stability in rat liver microsomes assessed as half life at 50 uM preincubated with NADPH for 5 mins followed by compound addition and measured upto 60 mins by LC-MS/MS analysis; format: ADME, Microsome
[12] = test system: Mus musculus; experiment: Neuroprotective activity against photo-thrombotic SPF C57 mouse model assessed as improvement in motor function at 30 mg/kg, po administered daily for 7 days; format: functional, organism-based; details: time 7.0 day
[13] = test system: Mus musculus; experiment: Neuroprotective activity against tMCAO-reperfusion induced brain injury in iv dosed SPF C57 mouse model assessed as decrease in cleaved caspase-3 expression measured after 24 hrs by Western blotting analysis; format: functional, organism-based; details: dose 3-30 mg/kg
[14] = Tmax in ICR mouse at 10 mg/kg, po measured upto 8 hrs by LC-MS/MS analysis; format: ADME, organism-based; details: in vivo
[15] = test system: N2a; experiment: Neuroprotective activity against OGD/R induced cell injury in mouse N2a cells assessed as reduction in apoptosis at 0.1 to 100 uM incubated for 24 hrs by TUNEL assay; format: functional, cell-based; details: dose 0.1-100 µM
[16] = test system: Mus musculus; experiment: Neuroprotective activity against tMCAO-reperfusion induced brain injury in SPF C57 mouse model assessed as reduction in brain water content at 30 mg/kg, iv measured after 24 hrs; format: functional, organism-based
[17] = test system: Mus musculus; experiment: Neuroprotective activity against tMCAO-reperfusion induced brain injury in iv dosed SPF C57 mouse model assessed as reduction in infarction region measured after 24 hrs; format: functional, organism-based; details: dose 3-30 mg/kg
[18] = Metabolic stability in human liver microsomes assessed as intrinsic clearance at 50 uM preincubated with NADPH for 5 mins followed by compound addition and measured upto 60 mins by LC-MS/MS analysis; format: ADME, Microsome; details: read-out: CLH
[19] = Cmax in ICR mouse at 1 mg/kg, iv measured upto 8 hrs by LC-MS/MS analysis; format: ADME, organism-based; details: in vivo
[20] = AUC(0 to infinity) in ICR mouse at 1 mg/kg, iv measured upto 8 hrs by LC-MS/MS analysis; format: ADME, organism-based; details: in vivo
[21] = Metabolic stability in mouse liver microsomes assessed as half life at 50 uM preincubated with NADPH for 5 mins followed by compound addition and measured upto 60 mins by LC-MS/MS analysis; format: ADME, Microsome
[22] = Metabolic stability in human liver microsomes assessed as half life at 50 uM preincubated with NADPH for 5 mins followed by compound addition and measured upto 60 mins by LC-MS/MS analysis; format: ADME, Microsome
[23] = Metabolic stability in dog liver microsomes assessed as half life at 50 uM preincubated with NADPH for 5 mins followed by compound addition and measured upto 60 mins by LC-MS/MS analysis; format: ADME, Canis lupus familiaris, Microsome
[24] = Metabolic stability in monkey liver microsomes assessed as intrinsic clearance at 50 uM preincubated with NADPH for 5 mins followed by compound addition and measured upto 60 mins by LC-MS/MS analysis; format: ADME, Macaca mulatta, Microsome; details: rhesus monkey, read-out: CLH
[25] = test system: N2a; experiment: Neuroprotective activity against OGD/R induced cell membrane integrity loss in mouse N2a cells assessed as reduction in LDH release at 0.1 to 100 uM incubated for 24 hrs; format: functional, cell-based; details: dose 0.1-100 µM
[26] = test system: Mus musculus; experiment: Neuroprotective activity against photo-thrombotic SPF C57 mouse model assessed as change in motor function at 30 mg/kg, po measured after day 1 to 3; format: functional, organism-based
[27] = AUC(0 to infinity) in ICR mouse at 10 mg/kg, po measured upto 8 hrs by LC-MS/MS analysis; format: ADME, organism-based; details: in vivo
[28] = Metabolic stability in dog liver microsomes assessed as intrinsic clearance at 50 uM preincubated with NADPH for 5 mins followed by compound addition and measured upto 60 mins by LC-MS/MS analysis; format: ADME, Canis lupus familiaris, Microsome; details: read-out: CLH
[29] = test system: N2a; experiment: Neuroprotective activity against OGD/R induced cell injury in mouse N2a cells assessed as inhibition of cell damage at 0.1 to 100 uM incubated for 24 hrs; format: functional, cell-based; details: dose 0.1-100 µM
[30] = Metabolic stability in mouse liver microsomes assessed as intrinsic clearance at 50 uM preincubated with NADPH for 5 mins followed by compound addition and measured upto 60 mins by LC-MS/MS analysis; format: ADME, Microsome; details: read-out: CLH
[31] = Oral bioavailability in ICR mouse at 10 mg/kg measured upto 8 hrs by LC-MS/MS analysis; format: ADME, organism-based; details: in vivo
[32] = Tmax in ICR mouse at 1 mg/kg, iv measured upto 8 hrs by LC-MS/MS analysis; format: ADME, organism-based; details: in vivo
[33] = AUC(0 to t) in ICR mouse at 10 mg/kg, po measured upto 8 hrs by LC-MS/MS analysis; format: ADME, organism-based; details: in vivo
[34] = test system: Mus musculus; experiment: Neuroprotective activity against tMCAO-reperfusion induced brain injury in iv dosed SPF C57 mouse model assessed as decrease in Bax expression measured after 24 hrs by Western blotting analysis; format: functional, organism-based; details: dose 3-30 mg/kg
[35] = test system: Mus musculus; experiment: Neuroprotective activity against tMCAO-reperfusion induced brain injury in SPF C57 mouse model assessed as reversal of reduced blood flow in semi-dark band area infarct volume at 3 to 30 mg/kg, iv measured after 24 hrs; format: functional, organism-based; details: dose 3-30 mg/kg
[36] = Cmax in Sprague-Dawley rat at 10 mg/kg, po measured at 2 hrs by LC-MS/MS analysis; format: ADME, organism-based; details: in vivo
[37] = test system: N2a; experiment: Neuroprotective activity against OGD/R induced cell injury in mouse N2a cells assessed as decrease in caspase-3 activity incubated for 24 hrs; format: functional, cell-based; details: dose 0.1-100 µM
[38] = species on record: Mus musculus; experiment: Neuroprotective activity against photo-thrombotic SPF C57 mouse model assessed as decrease in sensorimotor impairment measured after day 4 to 7; format: functional, organism-based
[39] = Cmax in ICR mouse at 10 mg/kg, po measured upto 8 hrs by LC-MS/MS analysis; format: ADME, organism-based; details: in vivo
[40] = test system: Mus musculus; experiment: Neuroprotective activity against tMCAO-reperfusion induced brain injury in SPF C57 mouse model assessed as reduction in infarct volume at 30 mg/kg, iv measured after 24 hrs (reference value: 41.48%); format: functional; set-up: scale not given: the % may be the effect or the level left
[41] = AUC(0 to t) in Sprague-Dawley rat at 10 mg/kg, po measured at 2 hrs by LC-MS/MS analysis; format: ADME, organism-based; details: in vivo
[42] = test system: Mus musculus; experiment: Neuroprotective activity against tMCAO-reperfusion induced brain injury in iv dosed SPF C57 mouse model assessed as decrease in cytochrome C expression measured after 24 hrs by Western blotting analysis; format: functional, organism-based; details: dose 3-30 mg/kg
[43] = test system: Mus musculus; experiment: Neuroprotective activity against tMCAO-reperfusion induced brain injury in SPF C57 mouse model assessed as decrease in neurological deficit score at 30 mg/kg, iv measured after 24 hrs; format: functional
[44] = Metabolic stability in rat liver microsomes assessed as intrinsic clearance at 50 uM preincubated with NADPH for 5 mins followed by compound addition and measured upto 60 mins by LC-MS/MS analysis; format: ADME, Microsome; details: read-out: CLH
[45] = Half-life in ICR mouse at 10 mg/kg, po measured upto 8 hrs by LC-MS/MS analysis; format: ADME, organism-based; details: in vivo

CCCCC1OC(=O)c2ccccc21 (stereo not drawn) [RAC-3-N-BUTYLPHTHALIDE]
Activity [1]: 130.83%
viability at 10 µM [2]: 36.6%
Activity [3]: 25.43%

CCCCC(O)c1ccccc1-c1nn[nH]n1 (centres undefined)
AUC(0-inf) ([4]; Sprague-Dawley): 37100 ng·h/mL
viability at 10 µM [2]: 40.5%
AUC(0-t) at 8 h [5]: 26500 ng·h/mL
Tmax ([6]; Sprague-Dawley, read-out: Tmax): 15 min
Cmax ([7]; Sprague-Dawley, read-out: Cmax): 12200 ng/mL
half-life ([8]; Sprague-Dawley): 279 min

CCCCC(O)c1ccc(Cl)cc1-c1nn[nH]n1 (centres undefined)
viability at 10 µM [2]: 27.5%
AUC(0-t) at 8 h [5]: 2670 ng·h/mL
Tmax ([6]; Sprague-Dawley, read-out: Tmax): 15 min

CCCCC(O)c1cc(Br)ccc1-c1nn[nH]n1 (centres undefined)
viability at 10 µM [2]: 37.6%
AUC(0-t) at 8 h [5]: 2670 ng·h/mL
Tmax ([6]; Sprague-Dawley, read-out: Tmax): 15 min

CCCCCC(O)c1ccc(Br)cc1-c1nn[nH]n1 (centres undefined)
viability at 10 µM [2]: 38%
AUC(0-t) at 8 h [5]: 2670 ng·h/mL
Tmax ([6]; Sprague-Dawley, read-out: Tmax): 15 min
Cmax ([7]; Sprague-Dawley, read-out: Cmax): 13600 ng/mL

CCCCC(O)c1ccc(Br)cc1-c1nnn(CC)n1 (centres undefined)
viability at 10 µM [2]: 53.6%
Tmax ([6]; Sprague-Dawley, read-out: Tmax): 15 min

CCCCC(O)c1ccc(Br)cc1-c1nn[nH]n1 (centres undefined)
AUC ([4]; po, 10 mg/kg, 8 h): 11.16 µg·h/mL
AUC(0-t) at 8 h [9]: 550 ng·h/mL
half-life at 50 µM [10]: > 186 min
half-life at 50 µM [11]: 38.2 min
Activity [12]: Active
Activity [13]: Dose-Dependent Effect
Tmax [14]: 15 min
Activity [15]: Active
Activity [16]: Active
Activity [17]: Dose-Dependent Effect
microsomal CLint at 50 µM [18]: < 7.4 µL/min/mg
Cmax [19]: 3760 ng/mL
AUC(0-inf) [20]: 550 ng·h/mL
half-life at 50 µM [21]: 15.6 min
half-life at 50 µM [22]: > 186 min
half-life at 50 µM [23]: > 186 min
microsomal CLint at 50 µM [24]: < 7.4 µL/min/mg
Activity [25]: Active
viability at 10 µM [2]: 56.6%
Activity [26]: Active
AUC(0-inf) [27]: 5590 ng·h/mL
microsomal CLint at 50 µM [28]: < 7.4 µL/min/mg
Activity [29]: Active
microsomal CLint at 50 µM [30]: 89.1 µL/min/mg
bioavailability [31]: 94.9%
AUC(0-t) at 8 h [5]: 6990 ng·h/mL
Tmax [32]: 4.8 min
AUC(0-t) at 8 h [33]: 5240 ng·h/mL
Activity [34]: Dose-Dependent Effect
Activity [35]: Active
Activity [3]: 18.8%
Cmax [36]: 1070 ng/mL
Activity [37]: Dose-Dependent Effect
Activity [38]: Dose-Dependent Effect
Cmax [39]: 8710 ng/mL
Activity [40]: 9.59%
AUCt [41]: 5240 ng·h/mL
Activity [42]: Dose-Dependent Effect
Activity [43]: 2.07
Tmax ([6]; po, 10 mg/kg, 8 h): 120 min
Cmax ([7]; po, 10 mg/kg, 8 h): 1130 ng/mL
microsomal CLint at 50 µM [44]: 36.3 µL/min/mg
t1/2 ([8]; po, 10 mg/kg, 8 h): 4.79 h
half-life [45]: 30.6 min

CCCCC(O)c1ccc(F)cc1-c1nn[nH]n1 (centres undefined)
viability at 10 µM [2]: 35.1%
AUC(0-t) at 8 h [5]: 2670 ng·h/mL
Tmax ([6]; Sprague-Dawley, read-out: Tmax): 15 min

CCCC(O)c1ccccc1-c1nn[nH]n1 (centres undefined)
viability at 10 µM [2]: 35.6%

— ChEMBL document CHEMBL5579827, “Discovery of orally bioavailable phenyltetrazolium derivatives for the acute treatment and the secondary prevention of ischemic stroke” (Eur J Med Chem, 2024)
